Measured values: patent US9687480B2, “Chiral 1-(4-methylphenylmethyl)-5-oxo-{N-[(3-t-butoxycarbonyl-aminomethyl)]-piperidin-1-yl)-pyrrolidine as inhibitors of collagen induced platelet activation and adhesion” (Council of Scientific & Industrial Research, priority 2011, dated 2017)

How the values were obtained:
[1] = tested on: hyperlipidemic hamsters; assay: FeCl3 induced thrombosis in hyperlipidemic hamsters; assay type: in vivo; details: HCHF fed hamsters
Protocol: (§1) HCHF treated hamsters were anesthetized by urethane (1.25 g/kg, i.p.). The carotid artery was carefully dissected and a pulsed Doppler Probe (DBF-120A-CPx, CBI-8000, Crystal Biotech. USA) was placed around it to record the blood flow velocity and potency of the blood vessels. The carotid artery thrombosis was induced by FeCl3 as follows: a square (1×1 mm) of Whatman Chromatography paper was immersed in 30% FeCl3 solution for 5 min and placed on the carotid artery as described earlier (Kurz K D, Main B W, Sandusky G E. Rat model of arterial thrombosis induced by ferric chloride. Thromb Res 1990; 60(4):269-80). Thrombosis was monitored as the reduction in carotid artery blood flow. The time at which the blood-flow velocity was decreased to zero was recorded as the total of occlusion of the vessel.

[2] = tested on: hamster whole blood (Collagen 2.5 μg/ml); assay: Whole blood aggregation in hyperlipidemic hamsters (ex vivo), collagen induced; details: HCHF hamsters ex vivo, aspirin 100 μM/kg, clopidogrel 30 μM/kg
[3] = tested on: rats; assay: FeCl3 induced carotid artery thrombosis in rats; assay type: in vivo; details: rats; compound 1 at the same dose as compound 6; aspirin at a very high dose
Protocol: as §1, with “Male SD rats” for “HCHF treated hamsters”, “Biotech,” for “Biotech.”, “patency” for “potency”, “20%” for “30%”, “occlusion (TTO)” for “occlusion”, “carotid artery. […] (Ferric Chloride induced thrombosis (FIG. 7))” for “vessel.”

[4] = tested on: hamster whole blood (ADP 10 μM); assay: Whole blood aggregation in hyperlipidemic hamsters (ex vivo), ADP induced; details: HCHF hamsters ex vivo, aspirin 100 μM/kg, clopidogrel 30 μM/kg
[5] = tested on: hamster whole blood (Thrombin 1 U/ml); assay: Whole blood aggregation in hyperlipidemic hamsters (ex vivo), thrombin induced; details: HCHF hamsters ex vivo; aspirin 100 μM/kg, clopidogrel 30 μM/kg
[6] = tested on: mouse platelets; assay: Platelet adhesion over collagen matrix (mice, ex vivo); assay type: in vivo; details: oral route, compound 6 10, 30, 100 μM/kg, aspirin 100 μM/kg
Text: FIG. 4b: Adhesion of mouse platelets on collagen matrix as observed under fluorescence microscope 40× (ex vivo method). Different pictures show the different treatment performed. Washed murine platelets (2×10^6/ml) were obtained from animals pretreated with the compound (compound 6) (different doses) and seeded on BSA or Collagen (fibrillar) coated cover slips (A, B). Platelets from untreated animals were allowed to adhere on uncoated and BSA coated cover slip respectively to delineate the possibility of non specific binding. C, D. control platelets were adhered on collagen coated cover slip (control). E. F&G. Platelets obtained from animals pre-treated with compound 6 (10 μM/kg, 30 μM/kg & 100 μM/kg) respectively were adhered on collagen coated cover slip. H, I. Platelets from Aspirin (100 μM/kg) & Clopidogrel treated (100 μM/kg) animals resp. (standard Drugs) and adhered on collagen coated cover slip (n=5, 5 animals/group/experiment).

[7] = tested on: mice; assay: Tail bleeding time in mice; assay type: in vivo; details: aspirin 170 μM/kg, clopidogrel 30 μM/kg
Protocol: Bleeding time in mice was evaluated by the method of Dejana et al, (Dejana E, Callioni A, Quintana A, Gaetano G. Bleeding time in laboratory animals. II—A comparison of different assay conditions in rats. […] The time elapsed from the tip incision to the stoppage of bleeding was determined as the bleeding time. The preferred compounds, aspirin (30 mg/kg) or vehicle was given orally 60 min prior to the tail incision in a group of 5 mice each.

[8] = tested on: hyperlipidemic hamsters; assay: Arterio-venous shunt model in hyperlipidemic hamsters; assay type: in vivo; details: hyperlipidemic hamsters; compound 6 at 10 μM/kg
[9] = tested on: hamster platelets; assay: Platelet adhesion on collagen coated surface (hyperlipidemic hamster model, ex vivo); assay type: in vivo, hamsters; details: hyperlipidemic hamsters, ex vivo
Protocol: Platelet adhesion to collagen was measured in polystyrene 96-well micro titer plates. Micro titer plates were coated with insoluble equine tendon native fibrillar type I collagen (Chrono-Log Corp. Havertown, USA), 2 μg/well in 5 mM acetic acid (Tandon N N, Ockenhouse C F, Greco […]. Adhesive functions of platelet lacking GPIV (CD36). Blood 1991; 78: 2809-13) overnight at 4° C. The unoccupied protein binding sites on the wells were blocked with 0.5% BSA in Tyrode's-HEPES buffer (136.7 mM NaCl, 13.8 mM NaHCO3. 0.36 mM NaH2PO4.H2O, 2.6 mM KCl, 1.0 mM MgCl2.6H2O, 5.5 mM glucose, pH 7.4) at room temperature for 1 hour, and then rinsed once with PBS. Washed platelets were suspended in the Tyrode's-HEPES buffer and added to the wells (2×10^7 cells/well) for 1 h at room temperature. After three washes with PBS, the number of adherent platelets was evaluated colorimetrically (Bellavite P., Andrioli G., Gizzo P., Arigliano P., Chirumbolo […] colorimetric method for the measurement of platelet adhesion in microtiter plates. Anal. Blochem. 1994; 216:444-450). Briefly, 150 μl of a 0.1 M citrate buffer (pH 5.4), containing 5 mM p-nitrophenyl phosphate and 0.1% TritonX-100 was added to the wells after washing. After incubation for 30 minutes at 25° C. in the absence of ambient light, colour was developed by the addition of 100 μl of 2N NaOH and the absorbance at 405 nm was read using a microplate reader (Powerware XS, Biotek, USA).

| bleeding time, standard drugs [7] | SMILES | time to occlusion (TTO) [1] | collagen induced whole blood platelet aggregation [2] | collagen induced whole blood platelet aggregation ([2]; listed as Aspirin) | time to occlude the carotid artery (TTO) [3] | ADP induced whole blood platelet aggregation [4] | thrombin induced whole blood platelet aggregation [5] | platelet adhesion (ex vivo) over collagen surface [6] | thrombus weight [8] | platelet adhesion over collagen coated surface [9] | ADP induced whole blood platelet aggregation ([4]; listed as Clopidogrel) |
| --- | --- | --- | --- | --- | --- | --- | --- | --- | --- | --- | --- |
| significantly prolonged | CC(=O)Oc1ccccc1C(=O)O [aspirin, reference compound] | significantly prolonged | but not collagen induced aggregation | reduced platelet aggregation in response to collagen | remained ineffective | can only inhibit ADP and Thrombin | can only inhibit ADP and Thrombin | did not exhibit any inhibitory effect | significantly reduced | no alteration |  |
|  | COC(=O)[C@H](c1ccccc1Cl)N1CCc2sccc2C1 [clopidogrel, reference compound] | significantly prolonged | inhibited ADP and collagen induced platelet aggregation |  |  | can only inhibit ADP induced aggregation |  |  | significantly reduced | significant reduction | inhibited ADP and collagen induced platelet aggregation |
